According to patent publication US10829506B2, “Amino- or ammonium-containing sulfonic acid, phosphonic acid and carboxylic acid derivatives and their medical use” (GRI Bio, Inc., priority 2011, dated 2020):
Several values for one entry are separate records, joined by “and”; a condition that tells them apart may be missing. Equal entries are not always repeated.

Legend:
BALB/cJW mice = assay: Delayed-type hypersensitivity (DTH) reaction, mouse ear swelling; type: in vivo
Method: The anti-inflammatory and anti-allergic effects of compound 1a was assessed in a mouse model of skin delayed-type hypersensitivity (DTH) reactions and compared to a vehicle control and to the reference drug dexamethasone. DTH reactions are antigen-specific cell-mediated immune responses, driven primarily by T helper type 1 (Th1) cells, similar to the tuberculin immunization response. The immune reaction induced by an ovalbumin challenge to animals previously sensitized with ovalbumin in Complete Freund's Adjuvant, is characterized by swelling (edema) at the site of challenge, e.g. the mouse ear. Dexamethasone, an anti-inflammatory steroid, reduces cell-mediated immune responses and was employed to validate the responsiveness of the assay to pharmacological treatment.
Female BALB/cJW mice were bred at the University of Lodz, Lodz, Poland and housed in groups of 8 in makrolon cages with a 12 h light-dark cycle. Mice were given free access to food (Agropol S. j., Motycz, Poland) and water.
Group size was n=8 mice unless otherwise stated. Test compound was freshly prepared before administration.
Sensitization: The protein antigen, ovalbumin, was reconstituted in PBS at 4 mg/ml. […] The emulsion was tested by putting a drop of emulsion onto PBS; if the emulsion remained as a light droplet on the PBS, the emulsion was deemed ready. […]
Challenge: On the sixth day after sensitization, DTH was elicited by challenging animals subcutaneously (gauge 30 needle, B. Braun Melsungen, Melsungen, Germany) in the left ears with 10 μL of a 1% suspension of heat-aggregated ovalbumin (HOVA) (100 μg ovalbumin per mouse). […] Ear thickness was measured with a precise spring-loaded caliper (Art. No, 7309, Mltutoyo, Kawasaki, Japan) before challenge, and 24 h after challenge. […]
To account for individual variability, the increase in right ear thickness, before and 24 h after administration of PBS, was subtracted from the HOVA-induced increase in left ear thickness. The increase in ear thickness was calculated by the difference between ear thickness before and 24 h after antigen challenge. […]

BALB/c-mice = assay: Allergic contact dermatitis model (TDI), mouse ear swelling test; type: in vivo
Method: The anti-inflammatory and anti-allergic effects of compound 1a were assessed in a mouse model of allergic contact dermatitis, a response driven primarily by T helper type 2 (Th2) cells. […] In this model, an allergic dermatitis response is obtained by sensitizing mice to TDI and subsequently challenging them with antigen by topical administration onto the ears. A quantitative assessment of anti-inflammatory and anti-allergic effects of topically or orally administered test compounds is possible by measuring the resulting ear swelling.
Female BALB/c-mice were obtained from Charles River (Sulzfeld, Germany) at age 8 weeks. All animals were housed in groups of eight per cage at 22° C. with a 12 h light/dark-cycle. Water and a standard diet (Aitromin, Lage/Lippe, Germany) were available ad libitum. All animals were acclimatized for one week before experimental procedures were commenced.
Experimental procedures for BALB/c mice housing, TDI sensitization and challenge, and measurement of ear thickness were performed as previously described (Baurner et al., J Pharm Pharmacol. 55:1107-1114 (2003)) with the following modifications. For active sensitization, 100 μL of 5% (w/v) TDI was administered to the shaved and stripped abdominal epidermis on day one, and for the next three consecutive days, 50 μL of 5% (w/v) TDI was applied. The allergic reaction was boosted 21 days later by application of 50 μL of 0.5% (w/v) TDI. For the examination of test compound effects, the left ears were used for the TDI challenge (20 μL of 0.5% in acetone) and ear thickness measured 3 h before and 24 h after challenge.
Group size was n=7 mice unless otherwise stated. Test compounds were freshly prepared before administration.
Administration time: to determine optimal time for administration treatment groups were treated orally by gavage with 100 mg/kg of compound 1a (suspended in phosphate-buffered saline (PBS), 10 mL/kg) 4 or 16 h before topical TDI challenge. Vehicle treated mice received PBS (10 mL/kg) orally, 4 h before challenge.
Dose-response: two groups of mice were treated orally with compound 1a at 20 mg/kg or 100 mg/kg suspended in PBS, 4 h before topical TDI challenge. Vehicle treated mice received PBS orally 4 h before challenge.
Compound 1a was administered to two groups of mice topically in 20 μl of a 2% or 6% solution in acetone/water (1:1). The solution was applied, 2 h before topical TDI challenge by administration of 10 μl onto each of the inner and outer surfaces of the left ears. A vehicle group (n=7) was treated with acetone/water (1:1).
Mean and standard error of the mean (SEM) were calculated from individual ear edema values. […]

CCCCCCCCCCCCCC[N+](C)(C)CCCS(=O)(=O)[O-] [Compound 1a, 3-(N,N-Dimethylmyristylammonio)-Propanesulfonate]
Inhibition of DTH response relative to that of a high dose of dexamethasone (BALB/cJW mice; 1a oral vs dexamethasone 1 mg/kg): 65% | Inhibition of mouse ear swelling (DTH response) (BALB/cJW mice; oral, 1a 100 mg/kg (loading dose, then maintenance doses), dexamethasone 1.0 mg/kg once daily, 24 h after ovalbumin challenge): 32% | Inhibition of mouse ear swelling (allergic contact dermatitis) (BALB/c-mice; oral 100 mg/kg, 4 h before TDI challenge): 52% and 51.7* % | Inhibition of mouse ear swelling (allergic contact dermatitis) (BALB/c-mice; oral 100 mg/kg, 16 h before TDI challenge): 32.2 | Inhibition of mouse ear swelling (allergic contact dermatitis) (BALB/c-mice; topical 2% solution, 2 h before TDI challenge): 72% | Inhibition of mouse ear swelling (allergic contact dermatitis) (BALB/c-mice; topical 6% solution, 2 h before TDI challenge): 86%
